Measurements: ChEMBL document CHEMBL6074653, “Reversal of insulin resistance to combat type 2 diabetes mellitus by newer thiazolidinedione's in fructose induced insulin resistant rats” (Eur J Med Chem, 2024)
Activity calls are given as the source filed them. No cut-off for these calls is given here.

What was measured:
[1] = Retention time of the compound by HPLC analysis; format: physicochemical
[2] = tested on: Rattus norvegicus; assay: Anti-diabetic activity in fructose-treated male Wistar rat assessed as increase in HOMO-IR level at 30 mg/kg, po administered for 15 days; format: functional, organism-based; settings: time 15.0 day
[3] = tested on: Rattus norvegicus; assay: Anti-diabetic activity in fructose-treated male Wistar rat assessed as increase in CAT level in liver at 30 mg/kg, po administered for 15 days (reference value: 27.65 +/-1.02 U/min); format: functional; settings: time 15 day
[4] = tested on: L6; assay: Induction of glucose uptake in rat L6 cells incubated for 24 hrs by GOD-POD technique; format: functional; design: concentration or dose not given beside the values
[5] = tested on: Rattus norvegicus; assay: Anti-diabetic activity in fructose-treated male Wistar rat assessed as decrease in MDA level in liver at 30 mg/kg, po administered for 15 days (reference value: 294.65 +/-11.78 nM/mg ); format: functional; settings: time 15 day
[6] = tested on: Rattus norvegicus; assay: Anti-diabetic activity in fructose-treated male Wistar rat assessed as decrease in adipocyte count 30 mg/kg, po administered for 15 days by H and E staining based analysis; format: functional, organism-based; settings: time 15.0 day
[7] = Drug recovery in rat plasma at 100 mg/kg, po by HPLC analysis; format: ADME, organism-based; settings: in vivo
[8] = tested on: Rattus norvegicus; assay: Anti-diabetic activity in fructose-treated male Wistar rat assessed as lymphocyte infiltration in liver 30 mg/kg, po administered for 15 days by H and E staining based analysis; format: functional, organism-based; settings: time 15.0 day
[9] = tested on: Rattus norvegicus; assay: Anti-diabetic activity in Wistar rat Diaphragm assessed as […] at 30 mg/kg, po administered for 15 days; format: functional, organism-based; settings: time 15.0 day
[10] = tested on: Rattus norvegicus; assay: Anti-diabetic activity in fructose-treated male Wistar rat assessed as decrease in triglycerides level at 30 mg/kg, po administered for 15 days (reference value: 140.03 +/-3.55 mg/dL); format: functional; settings: time 15 day
[11] = Half life in male Wistar rat at 30 mg/kg, po measured upto 24 hrs; format: ADME, organism-based; settings: in vivo
[12] = tested on: Rattus norvegicus; assay: Anti-diabetic activity in fructose-treated male Wistar rat assessed as decrease in SGPT level at 30 mg/kg, po administered for 15 days (reference value: […]); format: functional; settings: time 15 day
[13] = tested on: Rattus norvegicus; assay: Anti-diabetic activity in fructose-treated male Wistar rat assessed as decrease in fasting blood glucose level at 30 mg/kg, po administered for 15 days; format: functional, organism-based; settings: time 15.0 day
[14] = AUC (0 to t) in male Wistar rat at 30 mg/kg, po measured upto 24 hrs; format: ADME, organism-based; settings: in vivo
[15] = tested on: Rattus norvegicus; assay: Anti-diabetic activity in fructose-treated male Wistar rat assessed as sinusoidal congestion in liver 30 mg/kg, po administered for 15 days by H and E staining based analysis; format: functional, organism-based; settings: time 15.0 day
[16] = tested on: Rattus norvegicus; assay: Anti-diabetic activity in fructose-treated male Wistar rat assessed as increase in GSH level in liver at 30 mg/kg, po administered for 15 days (reference value: 39.98 +/-0.86 nM/mg ); format: functional; settings: time 15 day
[17] = tested on: Rattus norvegicus; assay: Anti-diabetic activity in fructose-treated male Wistar rat assessed as increase in SOD level in liver at 30 mg/kg, po administered for 15 days (reference value: 13.25 +/-1.35 U/ml); format: functional; settings: time 15 day
[18] = biological target: T1, Peroxisome proliferator-activated receptor gamma (Homo sapiens) (UniProt P37231); assay: Agonist activity at PPARgamma in human HepG2 cells assessed as increase in PPARgamma transcription factor expression by ELISA analysis; format: cell-based; settings: filed as agonist, dose 6.25-50 µM
T1 sequence (whole entry): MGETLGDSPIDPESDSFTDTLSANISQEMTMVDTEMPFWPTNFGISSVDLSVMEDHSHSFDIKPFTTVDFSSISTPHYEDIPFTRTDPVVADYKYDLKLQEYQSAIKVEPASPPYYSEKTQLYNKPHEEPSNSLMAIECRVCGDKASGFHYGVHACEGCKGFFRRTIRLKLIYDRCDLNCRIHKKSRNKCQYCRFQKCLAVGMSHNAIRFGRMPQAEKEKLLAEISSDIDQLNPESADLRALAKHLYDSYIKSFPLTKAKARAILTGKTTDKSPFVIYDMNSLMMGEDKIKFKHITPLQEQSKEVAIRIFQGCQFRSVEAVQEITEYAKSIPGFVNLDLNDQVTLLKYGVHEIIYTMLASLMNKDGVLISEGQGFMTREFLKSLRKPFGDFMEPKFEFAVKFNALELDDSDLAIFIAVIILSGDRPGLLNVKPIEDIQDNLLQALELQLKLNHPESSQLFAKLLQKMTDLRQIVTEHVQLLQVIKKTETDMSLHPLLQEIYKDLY

[19] = tested on: Rattus norvegicus; assay: Anti-diabetic activity in fructose-treated male Wistar rat assessed as increase in LDL level at 30 mg/kg, po administered for 15 days (reference value: 40.32 +/-1.08 mg/dL); format: functional; settings: time 15 day
[20] = Cmax in male Wistar rat at 30 mg/kg, po measured upto 24 hrs; format: ADME, organism-based; settings: in vivo
[21] = tested on: Rattus norvegicus; assay: Anti-diabetic activity in fructose-treated male Wistar rat assessed as increase in glycogen content in liver at 30 mg/kg, po administered for 15 days; format: functional, organism-based; settings: time 15.0 day
[22] = Drug recovery in rat plasma at 150 mg/kg, po by HPLC analysis; format: ADME, organism-based; settings: in vivo
[23] = Drug recovery in rat plasma at 50 mg/kg, po by HPLC analysis; format: ADME, organism-based; settings: in vivo
[24] = Tmax in male Wistar rat at 30 mg/kg, po measured upto 24 hrs; format: ADME, organism-based; settings: in vivo
[25] = Acute toxicity in male Wistar rat assessed as change in body weight at 10 mg/kg, po administered for 15 days; format: organism-based; settings: in vivo, 360 h, time 15 day
[26] = tested on: Rattus norvegicus; assay: Anti-diabetic activity in fructose-treated male Wistar rat assessed as decrease in SGOT level at 30 mg/kg, po administered for 15 days (reference value: […]); format: functional; settings: time 15 day
[27] = tested on: Rattus norvegicus; assay: Anti-diabetic activity in fructose-treated male Wistar rat assessed as ballooning degeneration in liver 30 mg/kg, po administered for 15 days by H and E staining based analysis; format: functional, organism-based; settings: time 15.0 day
[28] = tested on: Rattus norvegicus; assay: Anti-diabetic activity in fructose-treated male Wistar rat assessed as increase in HDL level at 30 mg/kg, po administered for 15 days (reference value: 25.35 +/-2.03 mg/dL); format: functional; settings: time 15 day
[29] = tested on: Rattus norvegicus; assay: Anti-diabetic activity in fructose-treated male Wistar rat assessed as increase in total cholesterol level at 30 mg/kg, po administered for 15 days (reference value: 93.68 +/-1.68 mg/dL); format: functional; settings: time 15 day
[30] = tested on: Rattus norvegicus; assay: Anti-diabetic activity in fructose-treated male Wistar rat assessed as steatosis in liver 30 mg/kg, po administered for 15 days by H and E staining based analysis; format: functional, organism-based; settings: time 15.0 day
[31] = tested on: Rattus norvegicus; assay: Anti-diabetic activity in fructose-treated male Wistar rat assessed as decrease in VLDL level at 30 mg/kg, po administered for 15 days (reference value: 28 +/-0.28 mg/dL); format: functional; settings: time 15 day
[32] = tested on: Rattus norvegicus; assay: Anti-diabetic activity in fructose-treated male Wistar rat assessed as decrease in insulin level at 30 mg/kg, po administered for 15 days by insulin tolerance test; format: functional, organism-based; settings: time 15.0 day
[33] = Acute toxicity in male Wistar rat assessed as body weight gain at 10 mg/kg, po administered for 15 days; format: organism-based; settings: in vivo, 360 h, time 15 day
[34] = tested on: Rattus norvegicus; assay: Anti-diabetic activity in fructose-treated male Wistar rat assessed as kupffer cell hyperplasia in liver 30 mg/kg, po administered for 15 days by H and E staining based analysis; format: functional, organism-based; settings: time 15.0 day
[35] = tested on: Rattus norvegicus; assay: Anti-diabetic activity in fructose-treated male Wistar rat assessed as increase in glycogen content in skeletal muscle at 30 mg/kg, po administered for 15 days; format: functional, organism-based; settings: time 15.0 day
[36] = AUC (0 to infinity) in male Wistar rat at 30 mg/kg, po measured upto 24 hrs; format: ADME, organism-based; settings: in vivo
[37] = tested on: Rattus norvegicus; assay: Anti-diabetic activity in fructose-treated male Wistar rat assessed as change in HOMO-IR level at 30 mg/kg, po administered for 15 days; format: functional, organism-based; settings: time 15.0 day
[38] = biological target: T1, Peroxisome proliferator-activated receptor gamma (Homo sapiens); assay: Agonist activity at Gal4-fused human PPARgamma transfected in African green monkey CV-1 cells assessed as receptor transactivation incubated for 24 hrs by luciferase based assay relative to control; format: cell-based

N#C[C@H]1CCCN1C(=O)CN1C(=O)S/C(=C\c2ccc(F)cc2)C1=O
Retention_time [1]: 6.7 min
Activity [2]: Active
Activity [3]: 48.65 U/min
Activity [4]: 74.58%
Activity [5]: 224.65 nM/mg
Activity [6]: Active
Drug recovery [7]: 99.58%
Activity [8]: Active
Activity [9]: Active
Activity [10]: 86.15 mg/dL
half-life [11]: 3.96 h
Activity [12]: 39.72 U/L
Activity [13]: Active
AUC(0-t) at 24 h [14]: 5.62 µg·h/mL
Activity [15]: Active
Activity [16]: 58.63 nM/mg
Activity [17]: 20.36 U/ml
Activity [18]: Dose-dependent-effect
Activity [19]: 42.74 mg/dL
Cmax [20]: 0.926 µg/mL
Activity [21]: Active
Drug recovery [22]: 98.36%
Drug recovery [23]: 99.96%
Tmax [24]: 2 h
Activity [25]: Non-toxic
Activity [26]: 46.36 U/L
Activity [27]: Active
Activity [28]: 51.39 mg/dL
Activity [29]: 112.3 mg/dL
Activity [30]: Active
Activity [31]: 17.23 mg/dL
Activity [32]: Active
Activity [33]: Non-toxic
Activity [34]: Active
Activity [35]: Active
AUC(0-inf) [36]: 6.24 µg·h/mL

COc1cc(/C=C2\SC(=O)N(CC(=O)N3CCC[C@@H]3C#N)C2=O)cc(OC)c1OC
Activity [4]: 69.74%

N#C[C@H]1CCCN1C(=O)CN1C(=O)S/C(=C\c2ccc(O)cc2)C1=O
Activity [37]: Active
Retention_time [1]: 4.4 min
Activity [3]: 52.36 U/min
Activity [4]: 79.29%
Activity [5]: 197.32 nM/mg
Activity [6]: Active
Drug recovery [7]: 101%
Activity [8]: Active
Activity [9]: Active
Activity [10]: 76.18 mg/dL
half-life [11]: 4.21 h
Activity [12]: 37.12 U/L
Activity [13]: Active
AUC(0-t) at 24 h [14]: 5.98 µg·h/mL
Activity [15]: Active
Activity [16]: 61.35 nM/mg
Activity [17]: 24.68 U/ml
Activity [18]: Dose-dependent-effect
Activity [19]: 47.8 mg/dL
Cmax [20]: 1.03 µg/mL
Activity [21]: Active
Drug recovery [22]: 96.1%
Drug recovery [23]: 97.1%
Tmax [24]: 2.21 h
Activity [25]: Non-toxic
Activity [26]: 41.32 U/L
Activity [27]: Active
Activity [28]: 53.25 mg/dL
Activity [29]: 114.79 mg/dL
Activity [30]: Active
Activity [31]: 15.23 mg/dL
Activity [32]: Active
Activity [33]: Non-toxic
Activity [34]: Active
Activity [35]: Active
AUC(0-inf) [36]: 6.62 µg·h/mL

N#C[C@H]1CCCN1C(=O)CN1C(=O)S/C(=C\c2ccccc2O)C1=O
Activity [4]: 72.86%

O=C1NC(=O)C(Cc2ccc(OCc3cccc(Br)c3)cc2)S1 (stereo unspecified)
Activity [38]: 21.2%

CN(C)c1ccc(/C=C2\SC(=O)N(CC(=O)N3CCC[C@@H]3C#N)C2=O)cc1
Activity [4]: 64.18%

COc1ccc(/C=C2\SC(=O)N(CC(=O)N3CCC[C@@H]3C#N)C2=O)cc1
Activity [4]: 58.66%

Cc1ccc(/C=C2\SC(=O)N(CC(=O)N3CCC[C@@H]3C#N)C2=O)cc1
Activity [4]: 64.57%

N#C[C@H]1CCCN1C(=O)CN1C(=O)S/C(=C\c2ccco2)C1=O
Activity [4]: 57.4%

COc1ccc(/C=C2\SC(=O)N(CC(=O)N3CCC[C@@H]3C#N)C2=O)cc1OC
Activity [4]: 64.56%

N#C[C@H]1CCCN1C(=O)CN1C(=O)S/C(=C\c2ccccc2)C1=O
Activity [4]: 63.23%
